Measured values reported in ChEMBL document CHEMBL4342461, “Schwarzinicines A-G, 1,4-Diarylbutanoid-Phenethylamine Conjugates from the Leaves of Ficus schwarzii” (J Nat Prod, 2020).

Columns and labels:
[1] = tested on: Aorta; assay: Vasorelaxant activity in Sprague-Dawley rat aortic rings assessed as reduction in phenylephrine-induced contractions; format: functional, tissue-based
[2] = tested on: Aorta; assay: Vasorelaxant activity in Sprague-Dawley rat aortic rings assessed as reduction in phenylephrine-induced contractions by measuring maximum relaxation magnitude relative to control; format: functional
[3] = tested on: A549; assay: Cytotoxicity against human A549 cells after 72 hrs by neutral red uptake assay; format: cell-based; settings: A549, 72 h
[4] = tested on: MCF7; assay: Cytotoxicity against human MCF7 cells after 72 hrs by neutral red uptake assay; format: cell-based; settings: MCF7, 72 h
[5] = tested on: HCT-116; assay: Cytotoxicity against human HCT116 cells after 72 hrs by neutral red uptake assay; format: cell-based; settings: HCT-116, 72 h

| SMILES | EC50 [1] [nM] | Activity [1] | Emax [2] [%] | IC50 [3] [nM] | IC50 [4] [nM] | IC50 [5] [nM] |
| --- | --- | --- | --- | --- | --- | --- |
| COc1ccc(CCC(Cc2ccc(OC)c(OC)c2)NCCc2ccc3c(c2)OCO3)cc1OC (stereo not drawn) | 1880 | Dose-dependent effect | 120 | – | – | – |
| COc1ccc(CCC(Cc2ccc(OC)c(OC)c2)NCCc2cc(OC)c3c(c2)OCO3)cc1OC (stereo not drawn) | 2100 | Dose-dependent effect | 116 | – | – | – |
| CC[C@]1(O)C[C@@H]2CN(CCc3c([nH]c4ccccc34)[C@@](C(=O)OC)(c3cc4c(cc3OC)N(C)[C@H]3[C@@](O)(C(=O)OC)[C@H](OC(C)=O)[C@]5(CC)C=CCN6CC[C@]43[C@@H]65)C2)C1 [VINBLASTINE] | – | – | – | 10 | 1 | 0.5 |
| CC(CCc1ccc(O)cc1)NCCc1ccc(O)c(O)c1 (stereo not drawn) [DOBUTAMINE] | 2500 | – | 92 | – | – | – |

Further compounds by falling EC50 [1], results first:

| EC50 [1] [nM] | SMILES | Activity [1] | Emax [2] [%] | IC50 [3] [nM] | IC50 [4] [nM] | IC50 [5] [nM] |
| --- | --- | --- | --- | --- | --- | --- |
| 2010 | COc1ccc(CCNC(CCc2ccc(OC)c(OC)c2)Cc2ccc(OC)c(OC)c2)cc1OC (stereo not drawn) | Dose-dependent effect | 119 | > 10000 | > 10000 | > 10000 |
| 960 | COc1ccc(CCC(Cc2ccc(OC)c(OC)c2)N(C)CCc2ccc(OC)c(OC)c2)cc1OC (stereo not drawn) | Dose-dependent effect | 106 | > 10000 | > 10000 | > 10000 |
